How the values were obtained:
Format in all cases: in vivo
common chickweed [1] = assay: Test Example 3: herbicidal effects in soil treatment; settings: dose 3.2 g/a
Procedure, shortened: (§1)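 Seeds were sown in sterilized diluvial soil and covered with about 1.5 cm of soil. Compounds, formulated as emulsifiable concentrates and diluted with water, were sprayed evenly over the soil surface at set doses in g/a. Herbicidal effect was scored on a rating scale three weeks later.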

giant foxtail [2] = assay: as above; settings: dose 3.2 g/a
Procedure, shortened: as §1

redroot pigweed [3] = assay: as above; settings: dose 3.2 g/a
Procedure, shortened: as §1

velvetleaf [4] = assay: as above; settings: dose 3.2 g/a
Procedure, shortened: as §1

beadstraw = assay: as above; settings: dose 3.2 g/a
Procedure, shortened: as §1

posumbu knotweed [5] = assay: as above; settings: dose 3.2 g/a
Procedure, shortened: as §1

common lambsquater [6] = assay: as above; settings: dose 3.2 g/a
Procedure, shortened: as §1

large crabgrass [7] = assay: as above; settings: dose 3.2 g/a
Procedure, shortened: as §1

water foxtail [8] = assay: as above; settings: dose 3.2 g/a
Procedure, shortened: as §1

common ragweed [9] = assay: as above; settings: dose 3.2 g/a
Procedure, shortened: as §1

barnyardgrass [10] = assay: as above; settings: dose 3.2 g/a
Procedure, shortened: as §1

Italian ryegrass [11] = assay: as above; settings: dose 3.2 g/a
Procedure, shortened: as §1

common chickweed [12] = assay: Test Example 4: herbicidal effect in foliage treatment; settings: dose 3.2 g/a, three weeks after the application
Procedure, shortened: (§2)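 A uniform foliar spray of emulsifiable concentrate, diluted with water to give the stated g/a dose, was applied to plants raised for 14 days from seed in sterilized diluvial soil at 25 to 30° C. Herbicidal effects were scored three weeks later.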

giant foxtail [13] = assay: as above; settings: dose 3.2 g/a, three weeks after the application
Procedure, shortened: as §2

redroot pigweed [14] = assay: as above; settings: dose 3.2 g/a, three weeks after the application
Procedure, shortened: as §2

velvetleaf [15] = assay: as above; settings: dose 3.2 g/a, three weeks after the application
Procedure, shortened: as §2

posumbu knotweed [16] = assay: as above; settings: dose 3.2 g/a, three weeks after the application
Procedure, shortened: as §2

common lambsquater [17] = assay: as above; settings: dose 3.2 g/a, three weeks after the application
Procedure, shortened: as §2

large crabgrass [18] = assay: as above; settings: dose 3.2 g/a, three weeks after the application
Procedure, shortened: as §2

water foxtail [19] = assay: as above; settings: dose 3.2 g/a, three weeks after the application
Procedure, shortened: as §2

common ragweed [20] = assay: as above; settings: dose 3.2 g/a, three weeks after the application
Procedure, shortened: as §2

barnyardgrass [21] = assay: as above; settings: dose 3.2 g/a, three weeks after the application
Procedure, shortened: as §2

Italian ryegrass [22] = assay: as above; settings: dose 3.2 g/a, three weeks after the application
Procedure, shortened: as §2

ducksalad [23] = assay: Test Example 2: herbicidal effects during the vegetation period under submerged conditions; settings: treatment during the vegetation period under submerged conditions; dose 2.52 g/a
Procedure, shortened: (§3)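 Barnyardgrass, bulrush and ducksalad were co-sown in alluvial soil flooded to 4 cm and grown in a greenhouse at 25 to 30° C. At the 1- or 2-leaf stage, water-diluted emulsifiable concentrates went onto the water surface at set doses (g/a). Herbicidal effect was scored three weeks later on a graded scale.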

bulrush [24] = assay: as above; settings: treatment during the vegetation period under submerged conditions; dose 2.52 g/a
Procedure, shortened: as §3

barnyardgrass [25] = assay: as above; settings: treatment during the vegetation period under submerged conditions; dose 2.52 g/a
Procedure, shortened: as §3

transplanted rice = assay: Test Example 1: preemergence treatment under submerged conditions, effect on crop; settings: dose 2.52 g/a
Procedure, shortened: (§4)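 Weed seeds and 2.5-leaf rice seedlings shared each flooded cup of alluvial soil. Dosing, expressed as g per are, was by pouring water-diluted emulsifiable concentrate onto the surface on sowing day. Mortality was graded 0 to 5 after three weeks' growth.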

ducksalad [26] = assay: Test Example 1: herbicidal effects in preemergence treatment under submerged conditions; settings: dose 2.52 g/a
Procedure, shortened: as §4

bulrush [27] = assay: as above; settings: dose 2.52 g/a
Procedure, shortened: as §4

barnyardgrass [28] = assay: as above; settings: dose 2.52 g/a
Procedure, shortened: as §4

## CCOC(=O)N(c1ccccc1CN1C(=O)CC(C)(C)OC1C)S(=O)(=O)C(F)(F)F (stereo not drawn) [II-74]
Common chickweed [1]
  N: common chickweed, herbicidal effect (evaluation scale 0-5): 3 (mortality of at least 40% and less than 70%)
Giant foxtail [2]
  E: giant foxtail, herbicidal effect (evaluation scale 0-5): 5 (mortality of 90% or above (nearly complete death))
Redroot pigweed [3]
  K: redroot pigweed, herbicidal effect (evaluation scale 0-5): 0 (mortality of less than 5% (almost ineffective))
Velvetleaf [4]
  I: velvetleaf, herbicidal effect (evaluation scale 0-5): 5 (mortality of 90% or above (nearly complete death))
beadstraw
  O: beadstraw, herbicidal effect (evaluation scale 0-5): 4 (mortality of at least 70% and less than 90%)
Posumbu knotweed [5]
  M: posumbu knotweed, herbicidal effect (evaluation scale 0-5): 5 (mortality of 90% or above (nearly complete death))
Common lambsquater [6]
  L: common lambsquater, herbicidal effect (evaluation scale 0-5): 1 (mortality of at least 5% and less than 20%)
Large crabgrass [7]
  D: large crabgrass, herbicidal effect (evaluation scale 0-5): 5 (mortality of 90% or above (nearly complete death))
Water foxtail [8]
  G: water foxtail, herbicidal effect (evaluation scale 0-5): 5 (mortality of 90% or above (nearly complete death))
Common ragweed [9]
  J: common ragweed, herbicidal effect (evaluation scale 0-5): 2 (mortality of at least 20% and less than 40%)
Barnyardgrass [10]
  A: barnyardgrass, herbicidal effect (evaluation scale 0-5): 5 (mortality of 90% or above (nearly complete death))
Italian ryegrass [11]
  H: Italian ryegrass, herbicidal effect (evaluation scale 0-5): 4 (mortality of at least 70% and less than 90%)
Common chickweed [12]
  N: common chickweed, herbicidal effect: 4 (mortality of at least 70% and less than 90%)
Giant foxtail [13]
  E: giant foxtail, herbicidal effect: 3 (mortality of at least 40% and less than 70%)
Redroot pigweed [14]
  K: redroot pigweed, herbicidal effect: 0 (mortality of less than 5% (almost ineffective))
Velvetleaf [15]
  I: velvetleaf, herbicidal effect: 5 (mortality of 90% or above (nearly complete death))
Posumbu knotweed [16]
  M: posumbu knotweed, herbicidal effect: 4 (mortality of at least 70% and less than 90%)
Common lambsquater [17]
  L: common lambsquater, herbicidal effect: 3 (mortality of at least 40% and less than 70%)
Large crabgrass [18]
  D: large crabgrass, herbicidal effect: 5 (mortality of 90% or above (nearly complete death))
Water foxtail [19]
  G: water foxtail, herbicidal effect: 5 (mortality of 90% or above (nearly complete death))
Common ragweed [20]
  J: common ragweed, herbicidal effect: 3 (mortality of at least 40% and less than 70%)
Barnyardgrass [21]
  A: barnyardgrass, herbicidal effect: 5 (mortality of 90% or above (nearly complete death))
Italian ryegrass [22]
  H: Italian ryegrass, herbicidal effect: 5 (mortality of 90% or above (nearly complete death))
Ducksalad [23]
  C: ducksalad, herbicidal effect (evaluation scale 0-5): 5 (mortality of 90% or above (nearly complete death))
Bulrush [24]
  B: bulrush, herbicidal effect (evaluation scale 0-5): 5 (mortality of 90% or above (nearly complete death))
Barnyardgrass [25]
  A: barnyardgrass, herbicidal effect (evaluation scale 0-5): 5 (mortality of 90% or above (nearly complete death))
Transplanted rice
  a: transplanted rice, effect on crop (evaluation scale 0-5): 3 (mortality of at least 40% and less than 70%)
Ducksalad [26]
  C: ducksalad, herbicidal effect (evaluation scale 0-5): 5 (mortality of 90% or above (nearly complete death))
Bulrush [27]
  B: bulrush, herbicidal effect (evaluation scale 0-5): 5 (mortality of 90% or above (nearly complete death))
Barnyardgrass [28]
  A: barnyardgrass, herbicidal effect (evaluation scale 0-5): 5 (mortality of 90% or above (nearly complete death))

From patent US20120029187A1, “HALOALKYLSULFONANILIDE DERIVATIVE” (Nissan Chemical Industries, Ltd., priority 2009, published 2012)
